Reference: PubChem BioAssay AID1963836 (Molecular Pharmacology Branch, DTP, NCI, 2024)

Tested on: 857933-349-R-J2-PDC complex spheroid viability
Assay: Anticancer human tumor 857933-349-R-J2-PDC patient-derived colon adenocarcinoma cell line growth inhibition [POLQ]
Conditions: for IC50: curve of first compound; for viability, T/C: stronger effect = lower value
Protocol: Multicellular complex tumor spheroid response to Polymerase (POL) inhibitors (novobiocin, ART-558, RP6685) in combination with a variety of drugs and investigational agents in selected tumor cell lines
The POL inhibitors (novobiocin, ART-558, and RP6685) were evaluated both individually and in combination with standard of care and investigational anticancer small molecules within a complex spheroid model of solid tumors. . Complex spheroids include a stromal component modeled by human endothelial cells (HUVEC) and fibroblasts modeled by human mesenchymal stem cells (MSCs). The concentration ranges selected for each drug and investigational agent were based upon clinically achievable concentrations if the clinical Cmax of the agent was known.
Compounds. The drugs and investigational agents: novobiocin (NSC847541), ART-558 (NSC835418), RP-6685 (NSC848927), peposertib (NSC802822), ceralasertib (NSC780249), elimusertib (NSC800525), camonsertib (NSC841442), AZD-1390 (NSC803789), olaparib (NSC753686), talazoparib (NSC767125), rucaparib (NSC756644), sotorasib (NSC818433), MRTX-1133 (NSC836407), SN-38 (NSC673596), topotecan (NSC609699), epotoside (NSC141540), doxorubicin (NSC123127), gemcitabine (NSC613327), 5-fluorouracil (NSC19893), paclitaxel (NSC125973), vemurafenib (NSC761431), MSA-2 (NSC828583), SN-011 (NSC837082), adavosertib (NSC754352), prexasertib (NSC758257), carboplatin (NSC241240) and oxaliplatin (NSC266046), were obtained from the National Cancer Institute (NCI) Developmental Therapeutics Program Chemical Repository (21). The FDA-approved anticancer drug set is available from the Developmental Therapeutics Program at https://dtp.cancer.gov/organization/dscb/obtaining/. […] The stock solutions were prepared in dimethyl sulfoxide (DMSO, Sigma-Aldrich, St. Louis, MO, cat. D2650), except for the platinum compounds which were prepared in saline (Quality Biological, Gaithersburg, MD, cat. 114-055-101), at 800-fold the tested concentration and stored at -70 degrees C prior to their use. All drugs and investigational agents were tested over a range starting from a high concentration at or near the clinical Cmax and decreasing in half-log increments. If the clinical Cmax for an agent had not been determined, the highest concentration tested was 10 microM, except for SN-38, which was tested at a high concentration of 1 microM.
Cell Culture. All cells were maintained in an incubator at 37 degrees C and 5% CO2 with 95% humidity. The PDC lines were cultured according to standard operating procedures established by the NCI PDMR (https://pdmr.cancer.gov). Table 3 of the manuscript, lists the cell lines along with the number of the three cell types plated to form the mct-spheroids and media for tumor cell growth. After thawing, all PDC lines, except 997537-175-T-J1-PDC and 415267-285-R-J2-PDC, were cultured in Matrigel-coated flasks prepared with a working solution of 1X Ham's F-12 nutrient mix, without supplementation (Thermo Fisher Scientific, cat. 11765054), 100 U/mL penicillin-streptomycin (Thermo Fisher Scientific, cat. 15140122), and 2.5% Matrigel (Corning Inc., Corning, NY, cat. 354248) for the first three passages. The two PDC lines 997537-175-T-J1-PDC and 415267-285-R-J2-PDC were cultured on uncoated flasks. The 857933-349-R-J2-PDC line was cultured in 6C/Colon 1B media containing advanced DMEM/F-12 (Thermo Fisher Scientific, cat. 12634028), 10 mM HEPES (Thermo Fisher Scientific, cat. 15630080), 1X GlutaMAX supplement (Thermo Fisher Scientific, cat. 35050061), 0.1 mg/mL primocin (InvivoGen, San Diego, CA, cat. ant-pm-2), 10% defined fetal bovine serum, heat inactivated (HyClone Laboratories Inc., Logan, UT, cat. SH30070.03HI), 50% L-WRN conditioned media (ATCC, cat. CRL-3276), 1.25 mM N-Acetyl-L-cysteine (Sigma-Aldrich, cat. A9165), 10 mM nicotinamide (Sigma-Aldrich, cat. N0636), 1X B-27 supplement (Thermo Fisher Scientific, cat. 17504044), 1X N-2 supplement (Thermo Fisher Scientific, cat. […]

[1] = second compound 0.0316 µM, first compound 0.0316 µM
[2] = second compound 0.0316 µM, first compound 0.1 µM
[3] = second compound 0.0316 µM, first compound 0.316 µM
[4] = second compound 0.0316 µM, first compound 1 µM
[5] = second compound 0.0316 µM, first compound 3.16 µM
[6] = second compound 0.0316 µM, first compound 10 µM
[7] = second compound 0.1 µM, first compound 0.0316 µM
[8] = second compound 0.1 µM, first compound 0.1 µM
[9] = second compound 0.1 µM, first compound 0.316 µM
[10] = second compound 0.1 µM, first compound 1 µM
[11] = second compound 0.1 µM, first compound 3.16 µM
[12] = second compound 0.1 µM, first compound 10 µM
[13] = second compound 0.316 µM, first compound 0.0316 µM
[14] = second compound 0.316 µM, first compound 0.1 µM
[15] = second compound 0.316 µM, first compound 0.316 µM
[16] = second compound 0.316 µM, first compound 1 µM
[17] = second compound 0.316 µM, first compound 3.16 µM
[18] = second compound 0.316 µM, first compound 10 µM
[19] = second compound 1 µM, first compound 0.0316 µM
[20] = second compound 1 µM, first compound 0.1 µM
[21] = second compound 1 µM, first compound 0.316 µM
[22] = second compound 1 µM, first compound 1 µM
[23] = second compound 1 µM, first compound 3.16 µM
[24] = second compound 1 µM, first compound 10 µM
[25] = second compound 3.16 µM, first compound 0.0316 µM
[26] = second compound 3.16 µM, first compound 0.1 µM
[27] = second compound 3.16 µM, first compound 0.316 µM
[28] = second compound 3.16 µM, first compound 1 µM
[29] = second compound 3.16 µM, first compound 3.16 µM
[30] = second compound 3.16 µM, first compound 10 µM
[31] = second compound 10 µM, first compound 0.0316 µM
[32] = second compound 10 µM, first compound 0.1 µM
[33] = second compound 10 µM, first compound 0.316 µM
[34] = second compound 10 µM, first compound 1 µM
[35] = second compound 10 µM, first compound 3.16 µM
[36] = second compound 10 µM, first compound 10 µM
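Further: spheroids exposed to compounds for seven days before readout.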

## COc1cc2cc(C(=O)CCC(=O)O)sc2cc1OC + Nc1ccc(C#CCN(C(=O)Cc2ncc(C(F)(F)F)cc2C(F)(F)F)c2ccc(F)cc2)nn1
Second compound 0.0316 µM
  IC50: > 10 µM
Second compound 0.1 µM
  IC50: > 10 µM
Second compound 0.316 µM
  IC50: > 10 µM
Second compound 1 µM
  IC50: > 10 µM
Second compound 3.16 µM
  IC50: > 10 µM
Second compound 10 µM
  IC50: > 10 µM
[1]
  viability, T/C: 103%
[2]
  viability, T/C: 110%
[3]
  viability, T/C: 108%
[4]
  viability, T/C: 111%
[5]
  viability, T/C: 100%
[6]
  viability, T/C: 104%
[7]
  viability, T/C: 100%
[8]
  viability, T/C: 106%
[9]
  viability, T/C: 101%
[10]
  viability, T/C: 110%
[11]
  viability, T/C: 108%
[12]
  viability, T/C: 97.5%
[13]
  viability, T/C: 96.5%
[14]
  viability, T/C: 97.3%
[15]
  viability, T/C: 98.2%
[16]
  viability, T/C: 92.4%
[17]
  viability, T/C: 106%
[18]
  viability, T/C: 96%
[19]
  viability, T/C: 103%
[20]
  viability, T/C: 93.3%
[21]
  viability, T/C: 97.5%
[22]
  viability, T/C: 109%
[23]
  viability, T/C: 110%
[24]
  viability, T/C: 89.1%
[25]
  viability, T/C: 102%
[26]
  viability, T/C: 98.7%
[27]
  viability, T/C: 90.7%
[28]
  viability, T/C: 89.7%
[29]
  viability, T/C: 104%
[30]
  viability, T/C: 103%
[31]
  viability, T/C: 93.7%
[32]
  viability, T/C: 78.3%
[33]
  viability, T/C: 98.9%
[34]
  viability, T/C: 97.6%
[35]
  viability, T/C: 108%
[36]
  viability, T/C: 78.4%

## Nc1ccn(C2OC(CO)C(O)C2(F)F)c(=O)n1 (stereo unspecified) + Nc1ccc(C#CCN(C(=O)Cc2ncc(C(F)(F)F)cc2C(F)(F)F)c2ccc(F)cc2)nn1
Second compound 0.0316 µM
  IC50: 0.087 µM
Second compound 0.1 µM
  IC50: 0.114 µM
Second compound 0.316 µM
  IC50: 0.125 µM
Second compound 1 µM
  IC50: 0.121 µM
Second compound 3.16 µM
  IC50: 0.109 µM
Second compound 10 µM
  IC50: 0.115 µM
[1]
  viability, T/C: 74.7%
[2]
  viability, T/C: 46.7%
[3]
  viability, T/C: 14.3%
[4]
  viability, T/C: 9.47%
[5]
  viability, T/C: 6.73%
[6]
  viability, T/C: 6.61%
[7]
  viability, T/C: 65.3%
[8]
  viability, T/C: 54.7%
[9]
  viability, T/C: 14.5%
[10]
  viability, T/C: 8.76%
[11]
  viability, T/C: 7.02%
[12]
  viability, T/C: 6.34%
[13]
  viability, T/C: 71.5%
[14]
  viability, T/C: 59.6%
[15]
  viability, T/C: 9.98%
[16]
  viability, T/C: 9.36%
[17]
  viability, T/C: 5.55%
[18]
  viability, T/C: 7.25%
[19]
  viability, T/C: 81%
[20]
  viability, T/C: 57.6%
[21]
  viability, T/C: 12%
[22]
  viability, T/C: 11.3%
[23]
  viability, T/C: 9.17%
[24]
  viability, T/C: 6.73%
[25]
  viability, T/C: 69.6%
[26]
  viability, T/C: 52.8%
[27]
  viability, T/C: 17.3%
[28]
  viability, T/C: 9.05%
[29]
  viability, T/C: 6.17%
[30]
  viability, T/C: 7.31%
[31]
  viability, T/C: 66.3%
[32]
  viability, T/C: 54.9%
[33]
  viability, T/C: 15%
[34]
  viability, T/C: 11.1%
[35]
  viability, T/C: 12.4%
[36]
  viability, T/C: 10.2%

## O=C(c1cc(Cc2n[nH]c(=O)c3ccccc23)ccc1F)N1CCN(C(=O)C2CC2)CC1 + Nc1ccc(C#CCN(C(=O)Cc2ncc(C(F)(F)F)cc2C(F)(F)F)c2ccc(F)cc2)nn1
Second compound 0.0316 µM
  IC50: > 10 µM
Second compound 0.1 µM
  IC50: > 10 µM
Second compound 0.316 µM
  IC50: > 10 µM
Second compound 1 µM
  IC50: > 10 µM
Second compound 3.16 µM
  IC50: > 10 µM
Second compound 10 µM
  IC50: > 10 µM
[1]
  viability, T/C: 84.3%
[2]
  viability, T/C: 109%
[3]
  viability, T/C: 94.2%
[4]
  viability, T/C: 81.7%
[5]
  viability, T/C: 97.1%
[6]
  viability, T/C: 88.1%
[7]
  viability, T/C: 102%
[8]
  viability, T/C: 104%
[9]
  viability, T/C: 105%
[10]
  viability, T/C: 84.9%
[11]
  viability, T/C: 99.1%
[12]
  viability, T/C: 106%
[13]
  viability, T/C: 101%
[14]
  viability, T/C: 81.2%
[15]
  viability, T/C: 83.8%
[16]
  viability, T/C: 94.7%
[17]
  viability, T/C: 98.2%
[18]
  viability, T/C: 83.4%
[19]
  viability, T/C: 104%
[20]
  viability, T/C: 98.4%
[21]
  viability, T/C: 90.5%
[22]
  viability, T/C: 94.8%
[23]
  viability, T/C: 82.6%
[24]
  viability, T/C: 87.5%
[25]
  viability, T/C: 90.7%
[26]
  viability, T/C: 106%
[27]
  viability, T/C: 92.9%
[28]
  viability, T/C: 95%
[29]
  viability, T/C: 101%
[30]
  viability, T/C: 90.9%
[31]
  viability, T/C: 88.1%
[32]
  viability, T/C: 93.9%
[33]
  viability, T/C: 95.5%
[34]
  viability, T/C: 89%
[35]
  viability, T/C: 74%
[36]
  viability, T/C: 83.9%
